# Source: article PMC10932305, “RAR Inhibitors Display Photo-Protective and Anti-Inflammatory Effects in A2E Stimulated RPE Cells In Vitro through Non-Specific Modulation of PPAR or RXR Transactivation” (International Journal of Molecular Sciences, 2024)
# Target: T1, RAR-α (retinoic acid receptor α) (Homo sapiens, UniProt P10276)
# T1 construct: gene RARA; human recombinant RARα-LBD expressed in insect cells
# T1 sequence (P10276 183-417 limits assumed): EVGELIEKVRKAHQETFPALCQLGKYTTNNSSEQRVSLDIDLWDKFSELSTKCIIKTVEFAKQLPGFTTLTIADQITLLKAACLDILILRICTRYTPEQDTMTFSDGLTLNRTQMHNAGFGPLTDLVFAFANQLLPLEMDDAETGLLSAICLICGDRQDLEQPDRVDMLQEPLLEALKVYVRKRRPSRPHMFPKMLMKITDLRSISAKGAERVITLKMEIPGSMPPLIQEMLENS
# Experiment: radioligand competition binding (Eurofins Cerep)
row,Kd [µM],Compound
1,1.4,CC1=C(/C=C/C(C)=C/C=C/C(C)=C/c2cc(/C=C/C=C(C)/C=C/C3=C(C)CCCC3(C)C)cc[n+]2CCO)C(C)(C)CCC1 [A2E]
2,47,"CC(=C/C=C/C(C)=C/C=C/C=C(C)/C=C/C=C(C)/C=C/C(=O)O)/C=C/C(=O)O [NBX, norbixin]"
